Assay results taken from US6548450B1, “Tetrazolinone derivatives” (Nihon Bayer Agrochem, K.K., priority 1999, dated 2003).

System: paddy field weeds
Experiment: Test for herbicidal effect against paddy field weeds
Format: in vivo
Conditions: application rate of 0.5 kg/ha, applied to the surface of the water 5 days after rice transplantation, examined after 3 weeks, greenhouse pot
Experimental: Test for Herbicidal Effect Against Paddy Field Weeds
Preparation of formulation of the active compound
Carrier: Acetone 5 parts by weight
Emulsifier: Benzyloxypolyglycolether 1 part by weight
A formulation of the active compound is obtained as an emulsion by mixing 1 part by weight of the active compound with the above-mentioned amount of carrier and emulsifier. A prescribed amount of said formulation is diluted with water to prepare a formulation for testing.
In a greenhouse 3 seedlings of paddy rice (cultivar: Nipponbare) of 2.5 leafstage (15 cm tall) were transplanted in a 500 cm^2 pot filled with paddy field soil. Then seeds of barnyard grass, smallflower, bulrush, monochoria and broad-leaved weeds (common false pimpernel, Indian toothcup, long stemmed water wort, Ammannia multiflora Roxb., Dopatrium junceum Hammilt etc.) were sown and water was poured on the soil to a depth of about 2-3 cm.
5 days after the rice transplantation a formulation of each active compound prepared according to the aforementioned preparation method was applied to the surface of the water. A water depth of 3 cm was maintained. The herbicidal effect was examined after 3 weeks from the treatment. The herbicidal effect was rated as 100% in the case of complete death and as 0% in the case of no herbicidal effect.

CC(C)N(C(=O)n1nnn([C@@H](C)c2ccccc2)c1=O)c1ccccc1 [compound 3, 1-((S)-α-methylbenzyl)-4-(N-isopropyl-N-phenylcarbamoyl)-5(4H)-tetrazolinone]
herbicidal effect against paddy field weeds: sufficient herbicidal effect
